Consider 2 compounds from US5155130A, “Certain benzopyran and benzothiopyran derivatives” (Ciba-Geigy Corporation, priority 1990, dated 1992).

Test [1] has as its target T1, 5-lipoxygenase (Cavia porcellus, UniProt A0A286X958).
T1 construct: A-23187-stimulated guinea pig polymorphonuclear leukocytes; endogenous in cells; host or cells: guinea pig polymorphonuclear leukocytes
T1 sequence (A0A286X958 1-674): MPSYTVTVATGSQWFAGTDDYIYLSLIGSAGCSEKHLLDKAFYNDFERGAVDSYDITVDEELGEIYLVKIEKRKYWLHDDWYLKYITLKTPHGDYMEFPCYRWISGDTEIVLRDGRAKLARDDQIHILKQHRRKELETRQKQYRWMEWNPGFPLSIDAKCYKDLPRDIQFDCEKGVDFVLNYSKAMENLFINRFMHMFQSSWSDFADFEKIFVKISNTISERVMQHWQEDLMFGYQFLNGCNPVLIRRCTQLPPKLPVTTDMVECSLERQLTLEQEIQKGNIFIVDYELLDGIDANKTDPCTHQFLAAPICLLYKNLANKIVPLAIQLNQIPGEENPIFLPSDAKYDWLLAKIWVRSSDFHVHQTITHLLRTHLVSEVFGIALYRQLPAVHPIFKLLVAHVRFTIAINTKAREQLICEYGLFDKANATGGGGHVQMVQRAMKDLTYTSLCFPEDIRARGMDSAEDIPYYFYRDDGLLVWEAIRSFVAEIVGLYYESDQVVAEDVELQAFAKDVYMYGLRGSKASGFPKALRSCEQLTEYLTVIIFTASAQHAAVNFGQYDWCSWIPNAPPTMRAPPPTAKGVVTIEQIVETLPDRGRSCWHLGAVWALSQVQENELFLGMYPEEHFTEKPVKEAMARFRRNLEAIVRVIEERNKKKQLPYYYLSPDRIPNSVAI
Nature of the test: Inhibition of 5-HETE and LTB4 synthesis in A-23187-stimulated guinea pig polymorphonuclear leukocytes. As to conditions: read-out: IC50 for inhibition of the formation of 5-HETE and leukotriene B4 (LTB4). Format: cell-based. As to the method:
5-Lipoxygenase inhibition is determined e.g. by measuring the percent inhibition of the synthesis of 5-HETE [(5S)-5-hydroxy-6,8,11,14-eicosa-tetraenoic acid] and leukotriene B4 (LTB4, 5,12-dihydroxy-6,8,10,14-eicosatetraenoic acid) in A-23187-stimulated guinea pig polymorphonuclear leukocytes, essentially according to radiometric thin-layer chromatographic assays described by Walker and Dawson (J. Pharm. Pharmacol. 31: 778, 1979) and Jakschik and Lee (Nature 287: 51, 1980) to measure the formation of 5-HETE and LTB4 -like products from ^14 C-arachidonic acid. IC50 values are determined graphically as the concentration of test compound at which the synthesis of 5-HETE and LTB4 -like products is reduced to 50% of their respective control values.

The subject of test [2] is 5-lipoxygenase. Nature of the test: Ex vivo A-23187-stimulated LTB4 formation in whole blood after oral administration. As to conditions: dog, about 0.3 mg/kg p.o. As to the method: Furthermore, the inhibition of 5-lipoxygenase is determined after oral or i.v. administration to rats or dogs by measuring ex vivo in whole blood the decrease of A-23187-stimulated LTB4 formation as compared to non-treated control animals.

In test [3] the test system is rat pleurisy model of inflammation. Nature of the test: Carrageenin-induced pleurisy model of inflammation. Format: in vivo. The note with it: 10 mg/kg p.o. at -1, 6, 24 and 45 hours relative to carrageenin injection, 48 hours after injection. The text has this:
214, 74 (1980), in particular during the late phase of the corrageenin-induced pleurisy.

Test [4] concerns rat chronic colitis model. Briefly: Trinitrobenzenesulfonic acid-induced chronic colitis model. The class given is in vivo. The note with it: 100 mg/kg p.o. for 4 days. The text has this:
The trinitrobenzenesulfonic acid-induced chronic colitis test in the rat, e.g. as described by Wallace et al, Gastroenterology 1989, 96, 29-36, can be used to evaluate compounds for effects indicative of utility in inflammatory bowel diseases.

A word on the IC50: it is the concentration at which inhibition is half-maximal. Turning to `NC(=O)N(O)CC1=Cc2cc(Oc3ccccc3)ccc2OC1` [2(d), 3-[(N-Aminocarbonyl-N-hydroxy)aminomethyl]-6-phenoxy-2H-1-benzopyran], the IC50 on 5-lipoxygenase [1] was approximately 50 nM. Besides, the “inhibition of LTB4 formation as determined ex vivo” value with 5-lipoxygenase [2] is on record as “significant inhibition”. In addition, in test [3], the “cell count of leukocytes” value is on record as “lower” and the “inhibition of exudate volume” value is “inhibition”. Moreover, in test [4], the inhibition of colitis result was “inhibits colitis”.

On to `CNC(=O)N(O)CC1=Cc2cc(Oc3ccc(F)cc3)ccc2OC1` [5(f), 3-[{N-(N'-methylaminocarbonyl)-N-hydroxy}aminomethyl]-6-(p-fluorophenoxy)-2H-1-benzopyran], for which, in the test on 5-lipoxygenase [2], the “inhibition of LTB4 formation as determined ex vivo” value is reported as “significant inhibition”. In test [3], the “cell count of leukocytes” value is reported as “lower” and the “inhibition of exudate volume” value was “inhibition”.
